Test results as given in patent publication US20220257557A1, “PHARMACEUTICAL COMPOSITION FOR PREVENTING OR TREATING NEUROLOGICAL DISEASES” (GLACEUM INC., priority 2019, published 2022).

What was measured:
[1] = molecular target: T1, rePON1 (PON1, paraoxonase 1) (Homo sapiens, UniProt P27169); test: Prevention of inhibition of PON1 activity by oxidized linolenic acid (TBBL substrate); type: biochemical; settings: for activity at 30 µM: 30 μM compound with rePON1 30 min, then oxidized linolenic acid 2 h, TBBL substrate, normal control 100, negative control 73.64; for extent to which inhibition of rePON1 activity was prevented, compared with glabridin: compound 30 μM vs glabridin 30 μM; for extent to which inhibition of rePON1 activity was prevented, compared with glabridin / inhibition of rePON1 activity by oxidized linolenic acid: result in words; for inhibition of rePON1 activity by oxidized linolenic acid: compound 30 μM
T1 construct: purchased Thermo Corp. RP-75678
Description: Based on the fact that the activity of PON1 is inhibited when PON1 is treated with oxidized linolenic acid, an experiment was conducted to confirm the prevention of inhibition of PON1 activity. The activity of PON1 was measured using TBBL (5-thiobutyl butyrolactones) as a substrate.
Specifically, after 9.6 μl of 50 mM Tris-HCl containing 1 mM CaCl2 was added to each of […] Eppendorf tubes, 0.2 μl of each of the compounds of Formulas III-1, IV-1, V-1, IV-2, V-2, II-1, IV-3, V-3, III-2, IV-4, V-4, II-2 and III-3 and glabridine was added to each tube so that the concentration thereof was 30 μM. 0.2 μl of rePON1 (RP-75678, Thermo Corp.) was added to each of the 12 tubes and mixed. Thereafter, each of the mixtures was allowed to react at room temperature for 30 minutes, and 0.5 μl of 1 mM oxidized linolenic acid (OX-LA) dissolved in DMSO was added thereto in order to inhibit rePON1 activity, followed by reaction at room temperature for 2 hours, thus preparing solutions (I).
25 μl of 0.5 mM DTNB dissolved in 50 mM Tris-HCl containing 1 mM CaCl2 was dispensed into each well of a 384-well plate, and then 10 μl of each of the solutions (I) was dispensed into each well, and 20 μl of 2 mM TBBL dissolved in 50 mM Tris-HCl containing 1 mM CaCl2 was added to each well, thus preparing samples. The absorbance of each of the samples at 420 nm was measured using a spectrometer (SpectraMax M2) at 37° C. every 2 minutes for 1 hour.
In addition, a negative control was prepared in the same manner as the above-described method, except that, for the preparation of a solution, 0.2 μl of DMSO was added instead of the compounds of Formulas III-1, IV-1, V-1, IV-2, V-2, II-1, IV-3, V-3, III-2, IV-4, V-4, II-2 and III-3 and glabridin. Furthermore, a normal control was prepared in the same manner as the above-described method, except that, for the preparation of a solution, 0.2 μl of DMSO was added instead of the above-described compounds and glabridin and that oxidized linolenic acid was not added. The absorbance of each of the negative control and the normal control was measured.
Using SoftMax Pro software, the activity of PON1 was calculated from the absorbance using the following Equation 1, and the results are shown in Table 1 below.
Activity=(absorbancesample−absorbanceblank)/(absorbancePON1−absorbanceblank)*100 [Equation 1]

BV2 cells [2] = test: Transcription of NF-κB protein (p65, p50) into nucleus after LPS (Western blot); type: cell-based; settings: 3 h pretreatment (Table 3 amounts), LPS 1 μg/ml 1 h
Description: (§1) RAW264.7 cells or BV2 cells (5×10^5 cells/well) were dispensed in DMEM containing 10% heat-inactivated FBS, 10 IU/mL penicillin G, 100 μg/mL streptomycin and 2 mM L-glutamine and cultured in a 5% CO2 incubator at a temperature of 37° C.
(§2) The compound of Formula III-3, III-4, V-3, III-1, IV-1, V-1, IV-2, V-2 or II-2 was added to the RAW264.7 cells or BV2 cells, and the toxicities of the compounds were determined by MTT assay.
(§3) The pretreated cells of Experimental Example 4-1 were treated with 1 μg/ml of LPS for 1 hour, and then the level of transcription of NF-κB protein into the nucleus of each of p65 and p50 was analyzed through Western blot.

BV2 cells [3] = test: NO and PGE2 production after LPS; type: cell-based; settings: 3 h pretreatment (Table 3 amounts), LPS 1 μg/ml 24 h
Description: as §1, §2
(§4) The pretreated cells of Experimental Example 4-1 were treated with 1 μg/ml of LPS for 24 hours, and then the expression levels of iNOS and COX-2 were observed through Western blot, and the production of NO and PGE2 was measured.

RAW264.7 cells [4] = test: NO and PGE2 production after LPS; type: cell-based; settings: 3 h pretreatment (Table 3 amounts), LPS 1 μg/ml 24 h
Description: as §1, §2, §4

BV2 cells [5] = test: IL-1β, IL-6 and TNF-α mRNA expression after LPS (RT-PCR); type: cell-based; settings: 3 h pretreatment (Table 3 amounts), LPS 1 μg/ml 6 h
Description: as §1, §2
(§5) The pretreated cells of Experimental Example 4-1 were treated with 1 μg/ml of LPS for 6 hours, and then the mRNA expression level of the cytokine IL-1β, IL-6 or TNF-α produced in the inflammatory response was analyzed using RT-PCR.

RAW264.7 cells [6] = test: as above; type: cell-based; settings: 3 h pretreatment (Table 3 amounts), LPS 1 μg/ml 6 h
Description: as §1, §2, §5

RAW264.7 cells [7] = test: Transcription of NF-κB protein (p65, p50) into nucleus after LPS (Western blot); type: cell-based; settings: 3 h pretreatment (Table 3 amounts), LPS 1 μg/ml 1 h
Description: RAW264.7 cells or BV2 cells (5×10^5 cells/well) were dispensed in DMEM containing 10% heat-inactivated FBS, 10 IU/mL penicillin G, 100 μg/mL streptomycin and 2 mM L-glutamine and cultured in a 5% CO2 incubator at a temperature of 37° C. […]
as §3

BV2 cells [8] = test: iNOS and COX-2 expression after LPS (Western blot); type: cell-based; settings: 3 h pretreatment (Table 3 amounts), LPS 1 μg/ml 24 h
Description: as §1, §2, §4

RAW264.7 cells [9] = test: iNOS and COX-2 expression after LPS (Western blot); type: cell-based; settings: 3 h pretreatment (Table 3 amounts), LPS 1 μg/ml 24 h
Description: as §1, §2, §4

T1 sequence (P27169 whole entry): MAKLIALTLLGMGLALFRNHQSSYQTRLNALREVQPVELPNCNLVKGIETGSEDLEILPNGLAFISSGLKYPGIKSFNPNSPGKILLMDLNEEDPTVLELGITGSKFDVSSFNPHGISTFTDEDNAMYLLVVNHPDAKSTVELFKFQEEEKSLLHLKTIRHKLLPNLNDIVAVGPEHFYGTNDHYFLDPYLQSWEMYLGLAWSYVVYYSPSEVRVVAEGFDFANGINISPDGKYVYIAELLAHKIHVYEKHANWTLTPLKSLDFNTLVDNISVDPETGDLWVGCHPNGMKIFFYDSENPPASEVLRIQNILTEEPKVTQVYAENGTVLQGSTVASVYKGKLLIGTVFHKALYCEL

SMILES	activity at 30 µM [1] [%]	extent to which inhibition of rePON1 activity was prevented, compared with glabridin [1]	inhibition of rePON1 activity by oxidized linolenic acid [1]	level of transcription of NF-κB protein into the nucleus, p50 (BV2 cells [2])	level of transcription of NF-κB protein into the nucleus, p65 (BV2 cells [2])	production of NO (BV2 cells [3])	production of PGE2 (BV2 cells [3])	production of NO (RAW264.7 cells [4])	production of PGE2 (RAW264.7 cells [4])	mRNA expression level of IL-1β (BV2 cells [5])	mRNA expression level of IL-6 (BV2 cells [5])	mRNA expression level of TNF-α (BV2 cells [5])	mRNA expression level of IL-1β (RAW264.7 cells [6])	mRNA expression level of IL-6 (RAW264.7 cells [6])	mRNA expression level of TNF-α (RAW264.7 cells [6])	level of transcription of NF-κB protein into the nucleus, p50 (RAW264.7 cells [7])	level of transcription of NF-κB protein into the nucleus, p65 (RAW264.7 cells [7])	expression level of COX-2 (BV2 cells [8])	expression level of iNOS (BV2 cells [8])	expression level of COX-2 (RAW264.7 cells [9])	other results
CCOc1ccc([C@H]2COc3c(ccc4c3CCC(C)(C)O4)C2)c(O)c1 [Formula V-1, (S)-2-(8,8-dimethyl-2,3,4,8,9,10-hexahydropyrano[2,3-f]chromen-3-yl)-5-ethoxyphenol]	80.7	greater	prevented	concentration-dependently decreased	concentration-dependently decreased	concentration-dependently decreased	concentration-dependently decreased	concentration-dependently decreased	concentration-dependently decreased	concentration-dependently decreased	concentration-dependently decreased	concentration-dependently decreased	concentration-dependently decreased	concentration-dependently decreased	concentration-dependently decreased	concentration-dependently decreased	concentration-dependently decreased	concentration-dependently decreased	concentration-dependently decreased	concentration-dependently decreased	expression level of iNOS (RAW264.7 cells [9]): concentration-dependently decreased
CCCOc1ccc([C@@H]2COc3c(ccc4c3CCC(C)(C)O4)C2)c(O)c1 [Formula IV-2, (R)-2-(8,8-dimethyl-2,3,4,8,9,10-hexahydropyrano[2,3-f]chromen-3-yl)-5-propoxyphenol]	93.5	greater	prevented	concentration-dependently decreased	concentration-dependently decreased	concentration-dependently decreased	concentration-dependently decreased	concentration-dependently decreased	concentration-dependently decreased	concentration-dependently decreased	concentration-dependently decreased	concentration-dependently decreased	concentration-dependently decreased	concentration-dependently decreased	concentration-dependently decreased	concentration-dependently decreased	concentration-dependently decreased	concentration-dependently decreased	concentration-dependently decreased	concentration-dependently decreased	expression level of iNOS (RAW264.7 cells [9]): concentration-dependently decreased
CCCOc1ccc([C@H]2COc3c(ccc4c3CCC(C)(C)O4)C2)c(O)c1 [Formula V-2, (S)-2-(8,8-dimethyl-2,3,4,8,9,10-hexahydropyrano[2,3-f]chromen-3-yl)-5-propoxyphenol]	89.4	greater	prevented	concentration-dependently decreased	concentration-dependently decreased	concentration-dependently decreased	concentration-dependently decreased	concentration-dependently decreased	concentration-dependently decreased	concentration-dependently decreased	concentration-dependently decreased	concentration-dependently decreased	concentration-dependently decreased	concentration-dependently decreased	concentration-dependently decreased	concentration-dependently decreased	concentration-dependently decreased	concentration-dependently decreased	concentration-dependently decreased	concentration-dependently decreased	expression level of iNOS (RAW264.7 cells [9]): concentration-dependently decreased
CCOc1ccc([C@@H]2COc3c(ccc4c3CCC(C)(C)O4)C2)c(O)c1 [Formula IV-1, (R)-2-(8,8-dimethyl-2,3,4,8,9,10-hexahydropyrano[2,3-f]chromen-3-yl)-5-ethoxyphenol]	95	greater	prevented	concentration-dependently decreased	concentration-dependently decreased	concentration-dependently decreased	concentration-dependently decreased	concentration-dependently decreased	concentration-dependently decreased	concentration-dependently decreased	concentration-dependently decreased	concentration-dependently decreased	concentration-dependently decreased	concentration-dependently decreased	concentration-dependently decreased	concentration-dependently decreased	concentration-dependently decreased	concentration-dependently decreased	concentration-dependently decreased	concentration-dependently decreased	expression level of iNOS (RAW264.7 cells [9]): concentration-dependently decreased
